{"source": "patent US20250290117A1", "about": "“MOLECULAR PHENOTYPIC ANTIMICROBIAL SUSCEPTIBILITY TESTING” (priority 2024, published 2025)", "key": {"[1]": {"system": "pathogens of clinical samples", "assay": "Molecular phenotypic antimicrobial susceptibility test of clinical samples, extraction DNA purification step prior to PCR (Table 6)", "assay_type": "cell-based", "method_in_brief": "(§1)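 Specimens are first pre-incubated in medium, then diluted to 0.5 McFarland guided by optical density. They are exposed 12-16 h to antimicrobials at sensitivity breakpoints. Finally, either bead-based purification or lysis for direct PCR precedes semi-quantitative PCR.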"}, "[2]": {"system": "pathogens of clinical samples", "assay": "Molecular phenotypic antimicrobial susceptibility test of clinical samples, direct PCR without a separate DNA purification step (Table 6)", "assay_type": "cell-based", "method_in_brief": "as §1"}, "[3]": {"system": "E. coli", "assay": "Molecular phenotypic antimicrobial susceptibility test with direct PCR (no extraction DNA purification step)", "assay_type": "cell-based, Escherichia coli", "conditions": "specimen with <10,000 cells/mL, direct PCR after 16 hours of incubation"}, "[4]": {"conditions": "E. coli, clinical sample of r10-r24"}, "[5]": {"conditions": "E. coli, clinical sample of r158-r172"}, "[6]": {"conditions": "E. faecalis, clinical sample of r93-r99"}, "[7]": {"conditions": "E. faecalis, clinical sample of r100-r106"}, "[8]": {"conditions": "E. faecalis, clinical sample of r107-r113"}, "[9]": {"conditions": "E. faecalis, clinical sample of r114-r120"}, "[10]": {"conditions": "E. faecalis, clinical sample of r151-r157"}, "[11]": {"conditions": "K. aerogenes, clinical sample of r136-r150"}, "[12]": {"conditions": "K. pneumoniae, clinical sample of r121-r135"}, "[13]": {"conditions": "M. morganii, clinical sample of r55-r69"}, "[14]": {"conditions": "M. morganii, clinical sample of r70-r84"}, "[15]": {"conditions": "P. mirabilis, clinical sample of r25-r39"}, "[16]": {"conditions": "P. mirabilis, clinical sample of r40-r54"}}}
{"smiles": "C[C@@H]1O[C@@H]1P(=O)(O)O", "note": "[Fosfomycin]", "values": [{"measurement": "Molecular Antibiotic Susceptibility Result", "setting": "[1]; [4]", "result": "Sensitive (Antimicrobial wells with pathogen load detected below the control wells (typically >2 cycle thresholds later) may be reported as Sensitive)"}, {"measurement": "Ct", "setting": "[1]; E. coli, clinical sample of r10-r24, Ct Control Avg 18.112", "result": 28.111}, {"measurement": "Molecular Antibiotic Susceptibility Result", "setting": "[1]; [5]", "result": "Sensitive (Antimicrobial wells with pathogen load detected below the control wells (typically >2 cycle thresholds later) may be reported as Sensitive)"}, {"measurement": "Ct", "setting": "[1]; E. coli, clinical sample of r158-r172, Ct Control Avg 20.146", "result": 30.261}, {"measurement": "Molecular Antibiotic Susceptibility Result", "setting": "[1]; [6]", "result": "Sensitive (Antimicrobial wells with pathogen load detected below the control wells (typically >2 cycle thresholds later) may be reported as Sensitive)"}, {"measurement": "Ct", "setting": "[1]; E. faecalis, clinical sample of r93-r99, Ct Control Avg 22.987", "result": 35.358}, {"measurement": "Molecular Antibiotic Susceptibility Result", "setting": "[1]; [7]", "result": "sensitive"}, {"measurement": "Ct", "setting": "[1]; E. faecalis, clinical sample of r100-r106, Ct Control Avg 23.073", "result": 36.898}, {"measurement": "Molecular Antibiotic Susceptibility Result", "setting": "[1]; [8]", "result": "Resistant"}, {"measurement": "Ct", "setting": "[1]; E. faecalis, clinical sample of r107-r113, Ct Control Avg 22.144", "result": 20.142}, {"measurement": "Molecular Antibiotic Susceptibility Result", "setting": "[1]; [9]", "result": "Sensitive (Antimicrobial wells with pathogen load detected below the control wells (typically >2 cycle thresholds later) may be reported as Sensitive)"}, {"measurement": "Ct", "setting": "[1]; E. faecalis, clinical sample of r114-r120, Ct Control Avg 20.822", "result": 30.598}, {"measurement": "Molecular Antibiotic Susceptibility Result", "setting": "[1]; [10]", "result": "Sensitive (Antimicrobial wells with pathogen load detected below the control wells (typically >2 cycle thresholds later) may be reported as Sensitive)"}, {"measurement": "Ct", "setting": "[1]; E. faecalis, clinical sample of r151-r157, Ct Control Avg 20.56", "result": 37.968}, {"measurement": "Molecular Antibiotic Susceptibility Result", "setting": "[1]; [11]", "result": "Sensitive (Antimicrobial wells with pathogen load detected below the control wells (typically >2 cycle thresholds later) may be reported as Sensitive)"}, {"measurement": "Ct", "setting": "[1]; K. aerogenes, clinical sample of r136-r150, Ct Control Avg 19.994", "result": 25.008}, {"measurement": "Molecular Antibiotic Susceptibility Result", "setting": "[1]; [12]", "result": "Resistant"}, {"measurement": "Ct", "setting": "[1]; K. pneumoniae, clinical sample of r121-r135, Ct Control Avg 24.272", "result": 18.711}, {"measurement": "Molecular Antibiotic Susceptibility Result", "setting": "[1]; [13]", "result": "Sensitive (Antimicrobial wells with pathogen load detected below the control wells (typically >2 cycle thresholds later) may be reported as Sensitive)"}, {"measurement": "Ct", "setting": "[1]; M. morganii, clinical sample of r55-r69, Ct Control Avg 28.86", "result": 31.935}, {"measurement": "Molecular Antibiotic Susceptibility Result", "setting": "[1]; [14]", "result": "Sensitive (Antimicrobial wells with pathogen load detected below the control wells (typically >2 cycle thresholds later) may be reported as Sensitive)"}, {"measurement": "Ct", "setting": "[1]; M. morganii, clinical sample of r70-r84, Ct Control Avg 27.053", "result": 37.955}, {"measurement": "Molecular Antibiotic Susceptibility Result", "setting": "[1]; [15]", "result": "Sensitive (Antimicrobial wells with pathogen load detected below the control wells (typically >2 cycle thresholds later) may be reported as Sensitive)"}, {"measurement": "Ct", "setting": "[1]; P. mirabilis, clinical sample of r25-r39, Ct Control Avg 26.064", "result": 27.051}, {"measurement": "Molecular Antibiotic Susceptibility Result", "setting": "[1]; [16]", "result": "Sensitive (Antimicrobial wells with pathogen load detected below the control wells (typically >2 cycle thresholds later) may be reported as Sensitive)"}, {"measurement": "Ct", "setting": "[1]; P. mirabilis, clinical sample of r40-r54, Ct Control Avg 26.987", "result": 31.981}, {"measurement": "Molecular Antibiotic Susceptibility Result", "setting": "[2]; [4]", "result": "Sensitive (Antimicrobial wells with pathogen load detected below the control wells (typically >2 cycle thresholds later) may be reported as Sensitive)"}, {"measurement": "Ct", "setting": "[2]; E. coli, clinical sample of r10-r24, Ct control avg 12.97", "result": 25.481}, {"measurement": "Molecular Antibiotic Susceptibility Result", "setting": "[2]; [5]", "result": "Sensitive (Antimicrobial wells with pathogen load detected below the control wells (typically >2 cycle thresholds later) may be reported as Sensitive)"}, {"measurement": "Ct", "setting": "[2]; E. coli, clinical sample of r158-r172, Ct control avg 12.894", "result": 27.932}, {"measurement": "Molecular Antibiotic Susceptibility Result", "setting": "[2]; [6]", "result": "Sensitive (Antimicrobial wells with pathogen load detected below the control wells (typically >2 cycle thresholds later) may be reported as Sensitive)"}, {"measurement": "Ct", "setting": "[2]; E. faecalis, clinical sample of r93-r99, Ct control avg 22.011", "result": 30.578}, {"measurement": "Molecular Antibiotic Susceptibility Result", "setting": "[2]; [7]", "result": "sensitive"}, {"measurement": "Ct", "setting": "[2]; E. faecalis, clinical sample of r100-r106, Ct control avg 21.027", "result": 33.882}, {"measurement": "Molecular Antibiotic Susceptibility Result", "setting": "[2]; [8]", "result": "Resistant"}, {"measurement": "Ct", "setting": "[2]; E. faecalis, clinical sample of r107-r113, Ct control avg 20.529", "result": 19.527}, {"measurement": "Molecular Antibiotic Susceptibility Result", "setting": "[2]; [9]", "result": "Sensitive (Antimicrobial wells with pathogen load detected below the control wells (typically >2 cycle thresholds later) may be reported as Sensitive)"}, {"measurement": "Ct", "setting": "[2]; E. faecalis, clinical sample of r114-r120, Ct control avg 20.909", "result": 27.178}, {"measurement": "Molecular Antibiotic Susceptibility Result", "setting": "[2]; [10]", "result": "Sensitive (Antimicrobial wells with pathogen load detected below the control wells (typically >2 cycle thresholds later) may be reported as Sensitive)"}, {"measurement": "Ct", "setting": "[2]; E. faecalis, clinical sample of r151-r157, Ct control avg 18.551", "result": 32.048}, {"measurement": "Molecular Antibiotic Susceptibility Result", "setting": "[2]; [11]", "result": "Sensitive (Antimicrobial wells with pathogen load detected below the control wells (typically >2 cycle thresholds later) may be reported as Sensitive)"}, {"measurement": "Ct", "setting": "[2]; K. aerogenes, clinical sample of r136-r150, Ct control avg 13.854", "result": 19.581}, {"measurement": "Molecular Antibiotic Susceptibility Result", "setting": "[2]; [12]", "result": "Resistant"}, {"measurement": "Ct", "setting": "[2]; K. pneumoniae, clinical sample of r121-r135, Ct control avg […]", "result": 14.895}, {"measurement": "Molecular Antibiotic Susceptibility Result", "setting": "[2]; [13]", "result": "Sensitive (Antimicrobial wells with pathogen load detected below the control wells (typically >2 cycle thresholds later) may be reported as Sensitive)"}, {"measurement": "Ct", "setting": "[2]; M. morganii, clinical sample of r55-r69, Ct control avg 12.09", "result": 18.368}, {"measurement": "Molecular Antibiotic Susceptibility Result", "setting": "[2]; [14]", "result": "Sensitive (Antimicrobial wells with pathogen load detected below the control wells (typically >2 cycle thresholds later) may be reported as Sensitive)"}, {"measurement": "Ct", "setting": "[2]; M. morganii, clinical sample of r70-r84, Ct control avg 11.677", "result": 28.123}, {"measurement": "Molecular Antibiotic Susceptibility Result", "setting": "[2]; [15]", "result": "Sensitive (Antimicrobial wells with pathogen load detected below the control wells (typically >2 cycle thresholds later) may be reported as Sensitive)"}, {"measurement": "Ct", "setting": "[2]; P. mirabilis, clinical sample of r25-r39, Ct control avg 11.801", "result": 26.9}, {"measurement": "Molecular Antibiotic Susceptibility Result", "setting": "[2]; [16]", "result": "Sensitive (Antimicrobial wells with pathogen load detected below the control wells (typically >2 cycle thresholds later) may be reported as Sensitive)"}, {"measurement": "Ct", "setting": "[2]; P. mirabilis, clinical sample of r40-r54, Ct control avg 10.06", "result": 27.935}, {"measurement": "Molecular Antimicrobial Susceptibility Result", "setting": "[3]; E. coli #1 - WDCM 00090 - 6.2×E3", "result": "Sensitive (Antimicrobial wells with pathogen load detected below the control wells (typically >2 cycle thresholds later) may be reported as Sensitive)"}, {"measurement": "Ct at Sensitive Breakpoint", "setting": "[3]; E. coli #1 - WDCM 00090 - 6.2×E3, Ct at control 13.787", "result": 27.59}, {"measurement": "Molecular Antimicrobial Susceptibility Result", "setting": "[3]; E. coli #2 - WDCM 00090 - 6.2×E3", "result": "Sensitive (Antimicrobial wells with pathogen load detected below the control wells (typically >2 cycle thresholds later) may be reported as Sensitive)"}, {"measurement": "Ct at Sensitive Breakpoint", "setting": "[3]; E. coli #2 - WDCM 00090 - 6.2×E3, Ct at control 13.46", "result": 28.41}]}
